Literature values in patent publication US7091182B2, “Method for assisting in differential diagnosis and treatment of autistic syndromes” (Repligen Corporation, priority 1997, dated 2006).

Test system: autistic patients
Conditions: cited from earlier work

SMILES: O=C1CC[C@@]2(O)[C@H]3Cc4ccc(O)c5c4[C@@]2(CCN3CC2CC2)[C@H]1O5 [naltrexone]
- social behavior (double-blinded studies): failed to produce significant changes
- positive response (open trial in autistic children): 8 to 10 children were judged to show a positive response
